Molecules are shown by their SMILES.

As usually defined, the IC50 is the midpoint of a concentration-inhibition curve.

Series [1] can be described thus: Determination of PK parameters in dog after intravenous bolus. The class given is in vivo, Male beagle dogs. The settings on record: male beagle dog, plasma, 50% DMSO in PEG400, read-out: Dog t1/2 (terminal half-life) (converted). On the procedure:
Determination of PK Parameters Male beagle dogs (weight 9-13 kg) were fasted overnight and housed individually. Water was provided ad lib throughout the study. Food was allowed approximately 4 hr post dose. […] The formulations were given intravenous as a bolus injection into the cephalic vein. The vein used for the dosing will not be used for the blood sample collection for the first 4 hr post-dose). […] EDTA was used as anticoagulant and approximately 0.5 mL aliquots of blood samples were collected at each time point. […] Test compound concentration in dog plasma was determined using a LC/MS/MS method. Typically the LC/MS/MS system consisted of an ACQUITY UPLC system with autosampler system refrigerated at 4° C. during analysis, and an API 4000 mass spectrometer. […] The mobile phase consisting of a solvent A (0.1% formic acid in water/acetonitrile (95/5)) and solvent B (0.1% formic acid in acetonitrile/water (95/5)) was delivered at a flow rate of 600 μL/min. […] Mass spectrometric detection of the analytes is accomplished using either an ESI or APCI interface operated in the positive or negative ionization mode. Analyte response is measured by multiple reaction monitoring (MRM) of transitions unique to each compound […]

In series [2] the target is HIV-1 RT wild-type enzyme (Human immunodeficiency virus type 1 group M subtype B (isolate HXB2) (HIV-1), UniProt P04585). Description: HIV-1 reverse transcriptase inhibitory activity (RT polymerase assay). The format is biochemical. The settings on record: HIV-1 RT wild-type enzyme 83 pM; RNA-dependent DNA polymerase activity; read-out: IC50. A digest of the protocol:
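Enzyme and compound were preincubated 30 min at room temperature, then RNA/DNA hybrid (16.6 nM final; HCV-derived RNA, biotinylated primer) plus 2 μM dNTPs and 66.6 nM Ru-dUTP added, 90 min at 37 °C. Avidin capture and ECL counting; percent inhibition relative to DMSO (0%) and 1 μM efavirenz (100%), four-parameter IC50 fit.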

For the molecule `CC(F)(F)c1cc(Cn2cnc(C(F)(F)F)c(Oc3cc(Cl)cc(C#N)c3)c2=O)c(=O)[nH]n1` [Example 129, 3-chloro-5-((1-((6-(1,1-difluoroethyl)-3-oxo-2,3-dihydropyridazin-4-yl)methyl)-6-oxo-4-(trifluoromethyl)-1,6-dihydropyrimidin-5-yl)oxy)benzonitrile], the half-life in series [1] was 126 h. In addition, in series [2], the half-maximal inhibitory concentration (IC50) was 6 nM.
The like results for `CC(C)(C)c1ncc(Cn2cnc(C(F)(F)F)c(Oc3cc(Cl)cc(C#N)c3)c2=O)c(=O)[nH]1` [Example 130, 3-((1-((2-(tert-butyl)-6-oxo-1,6-dihydropyrimidin-5-yl)methyl)-6-oxo-4-(trifluoromethyl)-1,6-dihydropyrimidin-5-yl)oxy)-5-chlorobenzonitrile] were, in that order, 24 h and 12 nM.

(Values after patent US9718819B2 (Merck Sharp & Dohme Corp., priority 2012, dated 2017).)
